# Data: PMC13198257, “An aerosolized dual-action autotaxin inhibitor-PPARγ agonist for the treatment of pulmonary fibrosis” (Cell Reports Medicine, 2026)
# Tested on: lung gene expression
# Test: RNA sequencing of lung tissue (BLM/EL244 vs BLM)
# Assay type: in vivo, mouse
# Conditions: lung tissue of BLM-treated mice, BLM/EL244 vs BLM
# Procedure: RNA quality was assessed using an Agilent TapeStation 4150 with the High Sensitivity […] ScreenTape (Agilent), according to the manufacturer’s protocols. For library preparation, the QuantSeq 3’mRNA-Seq Library Prep Kit (Lexogen) was used according to manufacturer’s instructions. Briefly, 500 ng of RNA from each sample was used for first-strand synthesis, followed by RNA template removal, and second-strand synthesis initiated by random primers. In-line barcodes were introduced at this step, and this was followed by magnetic bead-based purification. The resulting libraries were amplified for 15 cycles and re-purified, with quantity and quality assessed on a Qubit 4 Fluorometer with the Invitrogen Qubit dsDNA HS Assay and an Agilent Tapestation 4150 with the High Sensitivity D1000 assay kit, respectively. The quantified libraries were pooled equimolarly; 50ng of total library mix was used for Adapter Conversion PCR Amplification using the Universal Library Conversion Kit (App-A), Version: V1.0 (MGI Tech Co., Ltd.), according to the manufacturer’s instructions.
# The quantity and quality of the purified adapter conversion PCR (AC-PCR) product were evaluated on a Qubit 4 Fluorometer with the Invitrogen Qubit dsDNA HS Assay and on an Agilent Tapestation 4150 with the High Sensitivity D1000 assay kit, respectively. This was followed by DNA denaturation, Single-Strand Circularisation, Enzymatic Digestion, Enzymatic Digestion Product Cleanup and Quality Control steps on 1 pmol of AC-PCR product, according to the Universal Library Conversion Kit (App-A) User Manual (Version: A3).
# Finally, 60 fmol of ssCirDNA were used for DNB preparation and sequencing on a DNBSEQ-G400 platform at the BSRC Alexander Fleming Genomics Facility, using a G400 App-A FCS SE100 High-throughput Sequencing Set (MGI Tech Co., Ltd.), according to the manufacturer’s instructions.
# Alignment of the FASTQ files was performed against the mouse genome build mm10 using a custom Bash script.[143] Read counting on the 3′ UTRs and differential expression analysis were conducted using the metaseqR2 bioconductor package.[144] Genes corresponding to the following biotypes were excluded: polymorphic_pseudogene, processed_transcript, pseudogene, IG_V_pseudogene, misc_RNA, IG_C_gene, IG_J_gene, IG_D_gene, IG_LV_gene, TR_V_gene, TR_V_pseudogene, TEC, and processed_pseudogene. Gene counts were normalized with DESEQ[145] through metaseqR2. Genes with more than 10 counts in at least 50% of the samples were kept for further processing. For differential expression analysis, the PANDORA algorithm[146] was used to estimate a meta p-value integrating the results from the DESEQ, DESEQ2,[147] edgeR,[148] limma,[149] NBPSeq,[150] and NOISeq[151] algorithms. All additional parameters were set to default values.
# Pathway enrichment analysis was performed for the Gene Ontology Biological process (BP) and Molecular Function (MF) terms through GeneCodis 4.[152] The volcano plots, scatterplots, Venn diagrams, and dot plots were generated using the ggplot2 Bioconductor package.
smiles,measurement,value
"O=C1NC(=O)C(Cc2ccc(OCCC3CCN(C(=O)OCc4cc(Cl)cc(Cl)c4)CC3)cc2)S1 (centres unmarked) [EL244, 3,5-dichlorobenzyl 4-(2-(4-((2,4-dioxothiazolidin-5-yl)methyl)phenoxy)ethyl)piperidine-1-carboxylate]",Ces2g log2 nFC,0.83
same,Ces2g nFC,1.78
same,Cfap43 log2 nFC,0.88
same,Cfap43 nFC,1.84
same,Cfap100 log2 nFC,0.89
same,Cfap100 nFC,1.85
same,Cfap206 log2 nFC,0.77
same,Cfap206 nFC,1.70
same,Cftr log2 nFC,0.96
same,Cftr nFC,1.95
same,Cldn5 log2 nFC,0.97
same,Cldn5 nFC,1.96
same,Cpm log2 nFC,0.68
same,Cpm nFC,1.60
same,Crebl2 log2 nFC,0.79
same,Crebl2 nFC,1.73
same,Crem log2 nFC,0.68
same,Crem nFC,1.60
same,Crispld2 log2 nFC,0.80
same,Crispld2 nFC,1.74
same,Cry2 log2 nFC,0.70
same,Cry2 nFC,1.62
same,Csrnp1 log2 nFC,0.83
same,Csrnp1 nFC,1.78
same,Ctla2a log2 nFC,0.72
same,Ctla2a nFC,1.65
same,Ctla2b log2 nFC,0.96
same,Ctla2b nFC,1.94
same,Cyp2d22 log2 nFC,0.97
same,Cyp2d22 nFC,1.97
same,Cyp2f2 log2 nFC,0.79
same,Cyp2f2 nFC,1.72
same,Dgkh log2 nFC,0.84
same,Dgkh nFC,1.79
same,Dnali1 log2 nFC,0.73
same,Dnali1 nFC,1.66
same,Dok4 log2 nFC,0.74
same,Dok4 nFC,1.67
same,Dpep1 log2 nFC,0.71
same,Dpep1 nFC,1.63
same,Dusp1 log2 nFC,0.86
same,Dusp1 nFC,1.82
same,Ednrb log2 nFC,0.97
same,Ednrb nFC,1.96
same,Elmod1 log2 nFC,0.89
same,Elmod1 nFC,1.86
same,Eng log2 nFC,0.81
same,Eng nFC,1.76
same,Errfi1 log2 nFC,0.95
same,Errfi1 nFC,1.93
same,Fabp3 log2 nFC,0.98
same,Fabp3 nFC,1.97
same,Fmo1 log2 nFC,0.86
same,Fmo1 nFC,1.81
same,Fmo2 log2 nFC,1.00
same,Fmo2 nFC,2.00
same,Fos log2 nFC,1.02
same,Fos nFC,2.03
same,Fxyd1 log2 nFC,0.80
same,Fxyd1 nFC,1.75
same,Fzd4 log2 nFC,0.69
same,Fzd4 nFC,1.61
same,Galnt15 log2 nFC,0.89
same,Galnt15 nFC,1.85
same,Gm26236 log2 nFC,1.03
same,Gm26236 nFC,2.04
same,Gm47291 log2 nFC,0.98
same,Gm47291 nFC,1.98
same,Gm49391 log2 nFC,0.96
same,Gm49391 nFC,1.95
same,Gnao1 log2 nFC,0.85
same,Gnao1 nFC,1.80
same,Gpm6a log2 nFC,0.83
same,Gpm6a nFC,1.78
same,Gpr155 log2 nFC,0.76
same,Gpr155 nFC,1.69
same,Gprasp1 log2 nFC,0.72
same,Gprasp1 nFC,1.64
same,Gpt log2 nFC,0.73
same,Gpt nFC,1.66
same,Gsn log2 nFC,1.06
same,Gsn nFC,2.08
same,Gstm1 log2 nFC,0.75
same,Gstm1 nFC,1.68
same,Hecw2 log2 nFC,0.81
same,Hecw2 nFC,1.75
same,Hlf log2 nFC,0.89
same,Hlf nFC,1.86
same,Igf1r log2 nFC,0.70
same,Igf1r nFC,1.63
same,Il6ra log2 nFC,0.84
same,Il6ra nFC,1.79
same,Iqca log2 nFC,0.87
same,Iqca nFC,1.83
same,Itga8 log2 nFC,0.88
same,Itga8 nFC,1.85
same,Itih4 log2 nFC,0.88
same,Itih4 nFC,1.84
same,Iyd log2 nFC,1.04
same,Iyd nFC,2.05
same,Jdp2 log2 nFC,0.71
same,Jdp2 nFC,1.64
same,Klf3 log2 nFC,0.69
same,Klf3 nFC,1.62
same,Klf4 log2 nFC,0.72
same,Klf4 nFC,1.64
same,Klf9 log2 nFC,0.85
same,Klf9 nFC,1.80
same,Klrd1 log2 nFC,0.95
same,Klrd1 nFC,1.93
same,Kndc1 log2 nFC,1.05
same,Kndc1 nFC,2.07
same,Krt23 log2 nFC,0.69
same,Krt23 nFC,1.61
same,Lncpint log2 nFC,1.06
same,Lncpint nFC,2.08
same,Lpin1 log2 nFC,0.80
same,Lpin1 nFC,1.75
same,Lrrc74b log2 nFC,1.02
same,Lrrc74b nFC,2.03
same,Ltbp4 log2 nFC,0.81
same,Ltbp4 nFC,1.76
same,Lyve1 log2 nFC,0.96
same,Lyve1 nFC,1.94
same,Map3k6 log2 nFC,0.95
same,Map3k6 nFC,1.93
same,Mapt log2 nFC,0.89
same,Mapt nFC,1.85
same,Mcf2l log2 nFC,0.95
same,Mcf2l nFC,1.93
same,Mettl7a1 log2 nFC,0.80
same,Mettl7a1 nFC,1.75
same,Mir29c log2 nFC,0.89
same,Mir29c nFC,1.85
same,Mir1668 log2 nFC,0.75
same,Mir1668 nFC,1.69
same,Mir6899 log2 nFC,0.84
same,Mir6899 nFC,1.80
same,Mtcl1 log2 nFC,0.73
same,Mtcl1 nFC,1.66
same,Ndrg2 log2 nFC,0.88
same,Ndrg2 nFC,1.84
same,Nek5 log2 nFC,0.81
same,Nek5 nFC,1.76
same,Nova2 log2 nFC,0.90
same,Nova2 nFC,1.86
same,Nr1d1 log2 nFC,0.84
same,Nr1d1 nFC,1.79
same,Nrgn log2 nFC,1.04
same,Nrgn nFC,2.05
same,Nrxn2 log2 nFC,0.88
same,Nrxn2 nFC,1.84
same,Ogn log2 nFC,0.86
same,Ogn nFC,1.82
same,Osgin1 log2 nFC,0.74
same,Osgin1 nFC,1.68
same,Pcolce2 log2 nFC,0.98
same,Pcolce2 nFC,1.97
same,Pcp4l1 log2 nFC,0.75
same,Pcp4l1 nFC,1.68
same,Phactr1 log2 nFC,0.74
same,Phactr1 nFC,1.67
same,Phf1 log2 nFC,0.75
same,Phf1 nFC,1.68
same,Pla2g1b log2 nFC,0.79
same,Pla2g1b nFC,1.72
same,Plxna2 log2 nFC,0.78
same,Plxna2 nFC,1.72
same,Ppargc1a log2 nFC,0.86
same,Ppargc1a nFC,1.82
same,Ppl log2 nFC,0.87
same,Ppl nFC,1.83
same,Prob1 log2 nFC,0.76
same,Prob1 nFC,1.70
same,Ptgfr log2 nFC,0.93
same,Ptgfr nFC,1.90
same,Pxdc1 log2 nFC,0.83
same,Pxdc1 nFC,1.78
same,Rapgef5 log2 nFC,0.88
same,Rapgef5 nFC,1.84
same,Rara log2 nFC,0.73
same,Rara nFC,1.66
same,Rgs9 log2 nFC,1.01
same,Rgs9 nFC,2.02
same,Rora log2 nFC,0.80
same,Rora nFC,1.74
same,S1pr4 log2 nFC,0.94
same,S1pr4 nFC,1.91
same,Scn3a log2 nFC,0.75
same,Scn3a nFC,1.68
same,Scube2 log2 nFC,0.74
same,Scube2 nFC,1.68
same,Sec14l3 log2 nFC,0.69
same,Sec14l3 nFC,1.62
same,Sec14l4 log2 nFC,0.77
same,Sec14l4 nFC,1.70
same,Sell log2 nFC,1.03
same,Sell nFC,2.04
same,Sema3g log2 nFC,0.78
same,Sema3g nFC,1.72
same,Sftpa1 log2 nFC,0.70
same,Sftpa1 nFC,1.62
same,Sgip1 log2 nFC,0.90
same,Sgip1 nFC,1.87
same,Sgms1 log2 nFC,0.71
same,Sgms1 nFC,1.63
same,Slc2a4rg-ps log2 nFC,0.85
same,Slc2a4rg-ps nFC,1.80
same,Slc7a10 log2 nFC,0.97
same,Slc7a10 nFC,1.96
same,Slc16a11 log2 nFC,0.79
same,Slc16a11 nFC,1.73
same,Slc43a3 log2 nFC,0.73
same,Slc43a3 nFC,1.66
same,Slit3 log2 nFC,1.02
same,Slit3 nFC,2.03
same,Snora21 log2 nFC,0.75
same,Snora21 nFC,1.68
same,Sntb1 log2 nFC,0.72
same,Sntb1 nFC,1.64
same,Sorbs1 log2 nFC,0.70
same,Sorbs1 nFC,1.62
same,Sorbs3 log2 nFC,0.80
same,Sorbs3 nFC,1.74
same,Srcin1 log2 nFC,0.91
same,Srcin1 nFC,1.87
same,Stard8 log2 nFC,0.69
same,Stard8 nFC,1.61
same,Syne1 log2 nFC,0.70
same,Syne1 nFC,1.62
